Laboratory results as given in US20150080462A1, “COMPOSITIONS AND METHODS FOR THE TREATMENT OR PREVENTION OF DISORDERS RELATING TO OXIDATIVE STRESS” (THE JOHNS HOPKINS UNIVERSITY, priority 2005, published 2015).

Key:
HO1 WT mice = assay: 72 h survival after MCAO, EC post-treatment; type: in vivo, mouse; settings: EC 30 mg/kg after 2 h or 4.5 h of reperfusion, 10 survived with vehicle
[1] = previous toxicological studies (Galati et al 2006); cited from earlier work
[2] = system: MCAO induced brain injury; assay: Neurological deficit score after MCAO, EC treatment; type: in vivo, mouse; settings: for NDS: HO1WT mice
From the text: Motor deficits were graded by sensorimotor performance or neurological score by the method of Longa et al. (Stroke. 20:84-91.1989). […] (1) no deficit, (2) forelimb weakness, (3) inability to bear weight on the affected side, (4) no spontaneous motor activity. Epicatechin (EC) was given orally (per kilogram of body weight) through gavage and precautions were taken not only to minimize the stress to animals but also careful administration of the drug solution. For pre-treatment studies, a single dose of EC was given 90 minutes before middle cerebral artery occlusion (MCAO). […] MCAO procedure was slightly modified from the methods previously published by Shah et al. (Shah, et al. in press, 2006). […] To measure relative cerebral blood flow (CBF), mice were placed in a porcine posture on a temperature controlled heat blanket (37° C.). Under an operating microscope, a 0.5-mm diameter microfiber was glued to the skull (over the area of parietal cortex) with cyanoacrylate glue (Super Glue Gel, Ross Products, Inc.) approximately 6 mm lateral and 1 mm posterior of bregma and connected to a laser-Doppler flowmeter (DRT4, Moor Instruments Ltd, Devon, England). Mice were allowed to return to supine position and a neck midline-incision was made to expose the right common carotid artery (CCA), external carotid artery (ECA), and internal carotid arteries (ICA) after dissecting in through out thyroid glands. All the arteries were separated from the vagus nerve. A specially devised method for making 7-0 Ethilon nylon filament (Ethicon, Inc., Somarville, N.J.) with 5 mm of the tip coated with silicone (Cutter Sil Light and Universal Hardener, Heraeus Kulzer, GmbH, Hanau, Germany) was employed and the filament was introduced into the ICA through the ECA stump to block the blood circulation to MCA or circle of Willis. The filament was carefully advanced up to 11 mm from the carotid artery bifurcation or until resistance was felt. […] CFB was monitored for up to 5 minutes and mice not attaining the required drop were terminated from the study. Cortical perfusion values were expressed as a percentage relative to baseline. Animals were shifted to a humidity/temperature-controlled chamber at 32° C. to maintain the body temperature during the 90 minutes of MCA occlusion, at 37° C. For reperfusion mice were briefly anesthetizing and filament was withdrawn. After suturing the neck, midline wound mice were again returned to a humidity/temperature-controlled chamber for 2 h to maintain the body temperature at 37° C. and then later shifted to their respective cages.

[3] = Physiological parameters (pH, PaCO2, PaO2) of mice treated with vehicle and EC; type: in vivo, mouse; settings: different drug concentrations and vehicle
Method: In a separate cohort of mice (5 WT; 5 Nrf2^−/−) that underwent an identical stroke protocol, including CBF monitoring, blood samples were collected through a PE-10 femoral artery catheter (Intramedic; BD Diagnostic Systems, Sparks, Md.) 30 minutes before MCAO, 1 hour after initiation of MCAO, and 1 hour after reperfusion. The blood was evaluated for pH, PaO2, and PaCO2 via blood gas analysis (Rapidlab 248; Chiron Diagnostic Corporation, Norwood, Mass.). In some experiments, blood was drawn intermittently at different intervals of time; 30 minutes before MCAO, 1 h after the initiation of MCAO, and 1 h after reperfusion.

[4] = system: MCAO induced brain injury; assay: Corrected infarct volume (TTC) after MCAO, EC treatment; type: in vivo, mouse
Method: After 24 or 72 h of reperfusion, mice were anesthetized, and their brains dissected out and cut into 2-mm coronal sections. Brain slices were stained with 2,3,5-triphenyltetrazolium chloride (TTC, Sigma Co, St. […] Cerebral cortex and striatum volumes in ipsilateral necrotic lesion and contralateral normal side of the brain were measured multiplying the sum of the areas by the distance between sections. Infarct volume was indirectly calculated by subtracting the volume of intact tissue in the ipsilateral hemisphere from that of the contralateral hemisphere and expressed as the percentage of infarct area to the total hemispheric area for each slice. Epicatechin (EC) was given orally (per kilogram of body weight) through gavage and precautions were taken not only to minimize the stress to animals but also careful administration of the drug solution. For pre-treatment studies, a single dose of EC was given 90 minutes before middle cerebral artery occlusion (MCAO). […] MCAO procedure was slightly modified from the methods previously published by Shah et al. (Shah, et al. in press, 2006). […] To measure relative cerebral blood flow (CBF), mice were placed in a porcine posture on a temperature controlled heat blanket (37° C.). Under an operating microscope, a 0.5-mm diameter microfiber was glued to the skull (over the area of parietal cortex) with cyanoacrylate glue (Super Glue Gel, Ross Products, Inc.) approximately 6 mm lateral and 1 mm posterior of bregma and connected to a laser-Doppler flowmeter (DRT4, Moor Instruments Ltd, Devon, England). Mice were allowed to return to supine position and a neck midline-incision was made to expose the right common carotid artery (CCA), external carotid artery (ECA), and internal carotid arteries (ICA) after dissecting in through out thyroid glands. All the arteries were separated from the vagus nerve. A specially devised method for making 7-0 Ethilon nylon filament (Ethicon, Inc., Somarville, N.J.) with 5 mm of the tip coated with silicone (Cutter Sil Light and Universal Hardener, Heraeus Kulzer, GmbH, Hanau, Germany) was employed and the filament was introduced into the ICA through the ECA stump to block the blood circulation to MCA or circle of Willis. The filament was carefully advanced up to 11 mm from the carotid artery bifurcation or until resistance was felt. […] CFB was monitored for up to 5 minutes and mice not attaining the required drop were terminated from the study. Cortical perfusion values were expressed as a percentage relative to baseline. Animals were shifted to a humidity/temperature-controlled chamber at 32° C. to maintain the body temperature during the 90 minutes of MCA occlusion, at 37° C. For reperfusion mice were briefly anesthetizing and filament was withdrawn. After suturing the neck, midline wound mice were again returned to a humidity/temperature-controlled chamber for 2 h to maintain the body temperature at 37° C. and then later shifted to their respective cages.

## Oc1cc(O)c2c(c1)O[C@H](c1ccc(O)c(O)c1)[C@H](O)C2 [EC, (−)-Epicatechin]
HO1 WT mice
  mice surviving 72 h (of 12 per group): 12 mice
[1]
  safe dose: up to 150 mg
[2]; HO1 WT mice, EC 2.5 mg/kg pre-treatment, no difference vs vehicle
  neurological deficit score: 3.3±0.29
[2]; HO1 WT mice, EC 5 mg/kg pre-treatment
  neurological deficit score: 3±0.35
[2]; HO1 WT mice, EC 15 mg/kg pre-treatment
  neurological deficit score: 2.7±0.39
[2]; EC 30 mg/kg 6 h post-treatment, vehicle 2.3±0.16, not significant
  NDS: 1.8±0.1
[2]; HO1 WT mice, EC 30 mg/kg at 3.5 h, scored at 24 h of reperfusion, vehicle 3.5±0.26
  neurological deficit score: 2.8±0.3
[2]; HO1 WT mice, EC 30 mg/kg at 6 h, scored at 24 h of reperfusion, vehicle 3.5±0.26
  neurological deficit score: 1.8±0.1
[2]; EC 30 mg/kg post-treatment (3.5 h after MCAO), vehicle 2.3±0.1
  NDS: 1.8±0.1
[2]; HO1 WT mice, EC 30 mg/kg pre-treatment
  neurological deficit score: 2.5±0.25
[2]; Nrf2 WT mice, EC 30 mg/kg pre-treatment, 24 h, vehicle 3.1±0.26
  neurological deficit score: 2.3±0.1
[2]; Nrf2−/− mice, EC 30 mg/kg pre-treatment, 24 h, vehicle 3.5±0.1, not significant
  neurological deficit score: 3.4±0.17
[3]
  physiological parameters (pH, PaCo2, Pao2) vs vehicle: no differences
[4]; HO1 WT mice, EC 2.5 mg/kg oral 90 min before MCAO, 24 h reperfusion, not significant
  corrected infarct volume: 33.8±3.3%
[4]; HO1 WT mice, EC 5 mg/kg oral 90 min before MCAO, 24 h reperfusion
  corrected infarct volume: 28.8±2.9%
[4]; HO1 WT mice, EC 15 mg/kg oral 90 min before MCAO, 24 h reperfusion
  corrected infarct volume: 24.9±3.8%
[4]; HO1 WT mice, EC 30 mg/kg after 2 h of reperfusion, 72 h, vehicle 46.6±5.3, in %
  infarct volume: 33.5±3.2
[4]; HO1 WT mice, EC 30 mg/kg oral 90 min before MCAO (90 min), 24 h reperfusion, vehicle 34.2±3.4%
  corrected infarct volume: 20.1±2.7%
[4]; HO1WT mice, EC 30 mg/kg post-treatment (3.5 h after MCAO), 72 h survival, vehicle 46.6±5.3%
  infarction volume: 33.5±3.2%
[4]; HO1−/− mice, EC 30 mg/kg 90 min before MCAO, 24 h reperfusion, vehicle 37.1±3.9%, not significant
  infarct volume: 33.8±3.2%
[4]; Nrf2 WT mice, EC 30 mg/kg 90 min before MCAO, 24 h reperfusion, vehicle 31.3±1.9%
  infarct volume: 24.1±1.8%
[4]; Nrf2−/− mice, EC 30 mg/kg 90 min before MCAO, 24 h reperfusion, vehicle 44.8±4.6, not significant, in %
  corrected infarct volume: 43.0±2.4
